Where a name gives a salt, the structure may show the parent alone.
Key:
[1] = target: T1, HCV polymerase (NS5B) type 1b (Hepatitis C virus genotype 1b, UniProt P26663); assay: Assay of enzyme (HCV polymerase) inhibitory activity, type 1b enzyme; assay type: biochemical, HCV BK strain (type 1b)
T1 construct: a region encoding NS5B (J Virol 1991 March, 65(3), 1105-13, 544 amino acids after deletion of 47 amino acids on the C-terminal); 6xHis (C); made in house; host or cells: Escherichia coli
Method in brief: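 IC50 derived from [3H]UTP incorporation into TCA-insoluble RNA, compared with and without test compound. Reaction (25 °C, 60 min, Tris pH 7.5, 5 mM MgCl2): E. coli-expressed 1b NS5B Δ47 with His tag at 0.5 μg/ml, 5 μg/ml run-off substrate RNA, ATP/GTP/CTP 50 μM, UTP 2 μM.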

[2] = target: T2, HCV polymerase (NS5B) type 1a (Hepatitis C virus genotype 1a, UniProt P26664); assay: Assay of enzyme (HCV polymerase) inhibitory activity, type 1a enzyme; assay type: biochemical, HCV type 1a (cloned from the blood of patients)
T2 construct: made in house; host or cells: Escherichia coli (by the 'similar method' of the 1b enzyme)
Method in brief: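 Reactions ran 60 min at 25° C in 20 mM Tris-HCl pH 7.5, 5 mM MgCl2, 50 mM NaCl, holding genotype 1a NS5B (1.5 μg/ml, Δ47 C-terminus, 6His), substrate RNA 5 μg/ml, UTP 2 μM with tritiated UTP and other NTPs 50 μM. IC50 derived from incorporated radiolabel in filter-trapped RNA relative to uninhibited reaction.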

[3] = HCV polymerase inhibitory activity (IC50), 1b, type 1b enzyme 0.5 μg/ml, 25° C., 60 min
[4] = HCV polymerase inhibitory activity (IC50), 1a, type 1a enzyme 1.5 μg/ml, 25° C., 60 min
[5] = HCV polymerase inhibitory activity IC50, 1b, type 1b enzyme
[6] = HCV polymerase inhibitory activity IC50, 1a, type 1a enzyme

SMILES	IC50 [1, 3] [nM]	IC50 [2, 4] [nM]	IC50 [1, 5] [nM]	IC50 [2, 6] [nM]
CC(C)c1ccc(S(=O)(=O)N2CCN(c3nc4ccccc4s3)CC2C(=O)NCc2ccc(C(F)(F)F)cc2)cc1 (stereo not shown) [Example 134, 4-benzothiazol-2-yl-1-(4-isopropyl-benzenesulfonyl)-piperazine-2-carboxylic acid 4-trifluoromethyl-benzylamide]	> 1000	> 1000	–	–
CCC(F)(F)c1ccc(CNC(=O)[C@H]2CN(c3cnc4cncnc4n3)CCN2S(=O)(=O)c2ccc(C(C)(C)C)cc2)cc1 [Example 695, (R)-1-(4-tert-butyl-benzenesulfonyl)-4-pteridin-7-yl-piperazine-2-carboxylic acid 4-(1,1-difluoro-propyl)-benzylamide]	–	–	< 100	< 100
CCOC(=O)c1ncc2sc(N3CCN(S(=O)(=O)c4ccc(OC(F)(F)F)cc4)[C@@H](C(=O)NCc4ccc(OC(F)(F)F)cc4)C3)nc2n1 [Example 1007, 2-[(R)-4-(4-trifluoromethoxy-benzenesulfonyl)-3-(4-trifluoromethoxy-benzylcarbamoyl)-piperazin-1-yl]-thiazolo[4,5-d]pyrimidine-5-carboxylic acid ethyl ester]	–	–	< 100	< 100
O=C(NCc1ccc(OC(F)(F)F)cc1)[C@H]1CN(c2cnc3cnccc3n2)CCN1S(=O)(=O)c1ccc(Cl)cc1 [Example 752, (R)-1-(4-chloro-benzenesulfonyl)-4-pyrido[3,4-b]pyrazin-2-yl-piperazine-2-carboxylic acid 4-trifluoromethoxy-benzylamide]	–	–	< 100	< 100
CSc1ccc(CNC(=O)[C@H]2CN(C(C)=O)CCN2S(=O)(=O)c2ccc(C(C)C)cc2)cc1 [Example 227, (R)-4-acetyl-1-(4-isopropyl-benzenesulfonyl)-piperazine-2-carboxylic acid 4-methylsulfanyl-benzylamide]	100 to 1000	100 to 1000	–	–
CC(=O)N1CCN(S(=O)(=O)c2ccc(OC(F)(F)F)cc2)[C@@H](C(=O)NCCCc2cccc(O)c2)C1 [Example 716, (R)-4-acetyl-1-(4-trifluoromethoxy-benzenesulfonyl)-piperazine-2-carboxylic acid [3-(3-hydroxy-phenyl)-propyl]-amide]	–	–	> 1000	> 1000
CC(=O)N1CCN(S(=O)(=O)c2ccc(C(C)C)cc2)[C@@H](C(=O)NCc2ccc(C(C)(F)F)cc2)C1 [Example 293, (R)-4-acetyl-1-(4-isopropyl-benzenesulfonyl)-piperazine-2-carboxylic acid 4-(1,1-difluoro-ethyl)-benzylamide]	100 to 1000	100 to 1000	–	–
CCOC(=O)c1csc(N2CCN(S(=O)(=O)c3ccc(C(C)C)cc3)C(C(=O)NCc3ccc(C(F)(F)F)cc3)C2)n1 (stereo not shown) [Example 170, 2-[4-(4-isopropyl-benzenesulfonyl)-3-(4-trifluoromethyl-benzylcarbamoyl)-piperazin-1-yl]-thiazole-4-carboxylic acid ethyl ester]	> 1000	> 1000	–	–
O=C(O)c1cccc2ncc(N3CCN(S(=O)(=O)c4ccc(OC(F)(F)F)cc4)[C@@H](C(=O)NCc4ccc(OC(F)(F)F)cc4)C3)nc12 [Example 781, 3-[(R)-4-(4-trifluoromethoxy-benzenesulfonyl)-3-(4-trifluoromethoxy-benzylcarbamoyl)-piperazin-1-yl]-quinoxaline-5-carboxylic acid]	–	–	< 100	< 100
CC(=O)N1CCN(S(=O)(=O)c2ccc(Br)cc2)C(C(=O)NCc2ccc(C(F)(F)F)cc2)C1 (stereo not shown) [Example 22, 4-acetyl-1-(4-bromo-benzenesulfonyl)-piperazine-2-carboxylic acid 4-trifluoromethyl-benzylamide]	> 1000	> 1000	–	–
O=C(NCc1ccc(OC(F)F)cc1)[C@H]1CN(c2nc3nc(C(F)(F)F)ncc3s2)CCN1S(=O)(=O)c1ccc(OC(F)(F)F)cc1 [Example 1000, (R)-1-(4-trifluoromethoxy-benzenesulfonyl)-4-(5-trifluoromethyl-thiazolo[4,5-d]pyrimidin-2-yl)-piperazine-2-carboxylic acid 4-difluoromethoxy-benzylamide]	–	–	< 100	< 100
O=C(NCc1ccc(OC(F)(F)F)cc1)[C@H]1CN(c2nc3nc(Cl)ncc3s2)CCN1S(=O)(=O)c1ccc(OC(F)(F)C(F)F)cc1 [Example 959, (R)-4-(5-chloro-thiazolo[4,5-d]pyrimidin-2-yl)-1-[4-(1,1,2,2-tetrafluoro-ethoxy)-benzenesulfonyl]-piperazine-2-carboxylic acid 4-trifluoromethoxy-benzylamide]	–	–	< 100	< 100
CCC(F)(F)c1ccc(CNC(=O)[C@H]2CN(c3cnc4cc(Br)ccc4n3)CCN2S(=O)(=O)c2ccc(OC(F)(F)F)cc2)cc1 [Example 684, (R)-4-(6-bromo-quinoxalin-2-yl)-1-(4-trifluoromethoxy-benzenesulfonyl)-piperazine-2-carboxylic acid 4-(1,1-difluoro-propyl)-benzylamide]	–	–	100 to 1000	100 to 1000
O=C(NCc1ccc(OC(F)(F)F)cc1)[C@H]1CN(c2cnc3cnc(C(F)(F)F)nc3n2)CCN1S(=O)(=O)c1ccc(OC(F)(F)F)cc1 [Example 798, (R)-1-(4-trifluoromethoxy-benzenesulfonyl)-4-(2-trifluoromethyl-pteridin-7-yl)-piperazine-2-carboxylic acid 4-trifluoromethoxy-benzylamide]	–	–	< 100	100 to 1000
CC(=O)N1CCN(S(=O)(=O)c2ccc(OC(F)(F)F)cc2)[C@@H](C(=O)NCc2ccccc2-c2ccccc2)C1 [Example 642, (R)-4-acetyl-1-(4-trifluoromethoxy-benzenesulfonyl)-piperazine-2-carboxylic acid (biphenyl-2-ylmethyl)-amide]	> 1000	> 1000	–	–
Cc1nc(N2CCN(S(=O)(=O)c3ccc(OC(F)(F)F)cc3)[C@@H](C(=O)NCc3ccc(C(C)C)cc3)C2)sc1C(=O)NCC(=O)OC(C)(C)C [Example 358, ({2-[(R)-3-(4-isopropyl-benzylcarbamoyl)-4-(4-trifluoromethoxy-benzenesulfonyl)-piperazin-1-yl]-4-methyl-thiazole-5-carbonyl}-amino)-acetic acid tert-butyl ester]	< 100	< 100	–	–
O=C(NCc1ccc(-c2ccccn2)s1)[C@H]1CN(c2cnc3cncnc3n2)CCN1S(=O)(=O)c1ccc(OC(F)(F)F)cc1 [Example 730, (R)-4-pteridin-7-yl-1-(4-trifluoromethoxy-benzenesulfonyl)-piperazine-2-carboxylic acid (5-pyridin-2-yl-thiophen-2-ylmethyl)-amide]	–	–	< 100	< 100
CCN(CC)c1nc(Br)nc2nc(N3CCN(S(=O)(=O)c4ccc(C(F)(F)F)cc4)[C@@H](C(=O)NCc4ccc(OC(F)(F)F)cc4)C3)sc12 [Example 974, (R)-4-(5-bromo-7-diethylamino-thiazolo[4,5-d]pyrimidin-2-yl)-1-(4-trifluoromethyl-benzenesulfonyl)-piperazine-2-carboxylic acid 4-trifluoromethoxy-benzylamide]	–	–	> 1000	> 1000
CC(C)c1ccc(CNC(=O)[C@H]2CNCCN2S(=O)(=O)c2ccc(C(F)(F)F)cc2)cc1 [Example 1, (R)-1-(4-trifluoromethyl-benzenesulfonyl)-piperazine-2-carboxylic acid 4-isopropyl-benzylamide hydrochloride]	> 1000	> 1000	–	–
CCCc1ccc(CNC(=O)[C@H]2CN(c3cnc(CN(C)C)cn3)CCN2S(=O)(=O)c2ccc(CC)cc2)cc1 [Example 538, (R)-5′-dimethylaminomethyl-4-(4-ethyl-benzenesulfonyl)-3,4,5,6-tetrahydro-2H-[1,2′]bipyrazinyl-3-carboxylic acid 4-propyl-benzylamide]	< 100	< 100	–	–
COc1ccc(S(=O)(=O)N2CCN(C(C)=O)C[C@@H]2C(=O)NCc2ccc(C(C)C)cc2)cc1C1CCCC1 [Example 241, (R)-4-acetyl-1-(3-cyclopentyl-4-methoxy-benzenesulfonyl)-piperazine-2-carboxylic acid 4-isopropyl-benzylamide]	100 to 1000	100 to 1000	–	–
CCC(F)(F)c1ccc(CNC(=O)[C@H]2CN(c3cnc4cnccc4n3)CCN2S(=O)(=O)c2ccc(C(C)(C)C)cc2)cc1 [Example 714, (R)-1-(4-tert-butyl-benzenesulfonyl)-4-pyrido[3,4-b]pyrazin-2-yl-piperazine-2-carboxylic acid 4-(1,1-difluoro-propyl)-benzylamide]	–	–	< 100	< 100
O=C(NCc1ccc(OC(F)(F)F)cc1)[C@H]1CN(c2ccc(=O)[nH]c2)CCN1S(=O)(=O)c1ccc(OC(F)(F)F)cc1 [Example 924, (R)-4-(6-oxo-1,6-dihydro-pyridin-3-yl)-1-(4-trifluoromethoxy-benzenesulfonyl)-piperazine-2-carboxylic acid 4-trifluoromethoxy-benzylamide hydrochloride]	–	–	100 to 1000	100 to 1000

From patent US8017612B2, “Piperazine compound and use thereof as a HCV polymerase inhibitor” (priority 2006, dated 2011)
